Data set [1] has as its system NCI-H524 human small cell lung cancer cells. The data set can be described thus: cells. In kind it is cell-based. As to the method: Conjugates of the present invention were assessed in an in vitro assay evaluating inhibition of cell proliferation. NCI-H524 (ATCC) human small cell lung cancer cells were plated in 96 well, V-bottomed plates (Costar) at a concentration of 5,000 cells/well. 24 hours later, cells were treated with either conjugate for 2 hours and further incubated 70 hours, or for octreotide competition experiments, treated with 100 μM octreotide for 30 min, and then treated with conjugate for 2 hours, and further incubated for 70 hours. Conjugate starting dose was 20 μM and three fold serial dilutions were done for a total of ten points. After 2 hours of treatment, cells were spun down, the drug containing media was removed, and fresh complete medium was added and used to resuspend the cells, which were spun again. After removal of the wash media, the cells were resuspended in complete medium, and then transferred into white walled, flat bottomed 96 well plates. […] Proliferation was measured using CellTiter Glo reagent using the standard protocol (Promega) and a Glomax multi+ detection system (Promega). Percent proliferation inhibition was calculated using the following formula: % inhibition=(control−treatment)/control*100. Control is defined as vehicle alone. IC50 curves were generated using the nonlinear regression analysis (four parameter) with GraphPad Prism 6.

The test system of a further data set is NCI-H69 SCLC tumors. Nature of the data set: H69 tumor DM-1 levels by LC/MS-MS. The format is in vivo, mice. Conditions: 1 mg/kg; 24 hour time point. The protocol:
To examine the ability of conjugates of the present invention to accumulate in tumors, a murine cancer model was used. All mice were treated in accordance with the OLAW Public Health Service Policy on Human Care and Use of Laboratory Animals and the ILAR Guide for the Care and Use of Laboratory Animals. All in vivo studies were conducted following the protocols approved by the Blend Therapeutics Institutional Animal Care and Use Committee. Animals were inoculated with 2.5×10^6 NCI-H69 SCLC (small cell lung cancer) cells in 1:1 RPMI 1640 (Invitrogen, Carlsbad, Calif.)/Matrigel® (BD Biosciences, San Jose, Calif.) via subcutaneous injection to the right flank. Tumors were allowed to reach an approximate volume of ˜500 mm3. Animals were then randomized into treatment groups of 3 animals per time point and were dosed at 1 mg/kg (10% propylene glycol in water for injection for free conjugates, or 10% sucrose for nanoparticles), or 0.4 mg/kg for DM-1 (10% propylene glycol in water for injection). The 24 hour time point was used as a benchmark across conjugates.
Tumor DM-1 levels were determined by liquid chromatography mass spectrometry (LC/MS-MS). Four volumes of 5 mM 6-maleimidohexanoic acid to 1 part tumor v/w was added and homogenized for about 10-15 seconds with a handheld homogenizer. 10 μL of 500 mM Tris(2-carboxyethyl)phosphine was added to 100 uL of tumor homogenate, mixed well and incubated at room temperature for about 5-15 min. 200-300 uL of acetonitrile was used to precipitate proteins in tumor homogenate, samples were centrifuged for 5 min, and supernatant was injected onto LC/MS-MS system for DM-1 analysis.

Where [2] appears, read: 2 hours treatment, 70 hours further incubation, read-out: H524 IC50.
[3] abbreviates: read-out: H524 IC50+ 100 uM octreotide, 100 μM octreotide for 30 min before conjugate.

Like-named read-outs stand apart in the source and are kept apart here. Positions of bridges follow the written chain, without caps; N, C: chain ends. Non-standard residues stand in square brackets, D forms with d. Residues, ends and D or L forms follow the SMILES beside them. *: point of attachment. NH(CH2)2SS(DM1) = COc1cc2cc(c1Cl)N(C)C(=O)C[C@H](OC(=O)[C@H](C)N(C)C(=O)CCSSCCN*)[C@]1(C)O[C@H]1[C@H](C)[C@@H]1C[C@@](O)(NC(=O)O1)[C@H](OC)/C=C/C=C(\C)C2; X1 = COc1cc2cc(c1Cl)N(C)C(=O)C[C@H](OC(=O)[C@H](C)N(C)C(=O)CCS*)[C@]1(C)O[C@H]1[C@H](C)[C@@H]1C[C@@](O)(NC(=O)O1)[C@H](OC)/C=C/C=C(\C)C2; Thr(ol) = C[C@@H](O)[C@H](N)CO

Consider 13 compounds from patent publication US11160871B2, “SSTR-targeted conjugates and particles and formulations thereof” (TARVEDA THERAPEUTICS, INC., priority 2015, dated 2021).

For `CCCCCCCCCCC(CCN[C@H](Cc1ccccc1)C(=O)N[C@H]1CSSC[C@@H](C(=O)N[C@@H](Cc2c[nH]c3ccccc23)C(N)=O)NC(=O)[C@H](C(C)C)NC(=O)[C@H](CCCCN)NC(=O)[C@@H](Cc2c[nH]c3ccccc23)NC(=O)[C@H](Cc2ccc(O)cc2)NC1=O)SSCCC(=O)N(C)[C@@H](C)C(=O)O[C@H]1CC(=O)N(C)c2cc(cc(OC)c2Cl)C/C(C)=C/C=C/[C@@H](OC)[C@@]2(O)C[C@H](OC(=O)N2)[C@@H](C)[C@@H]2O[C@@]12C` (single isomer, unassigned) [Conjugate 102], the values for the 50% inhibitory concentration (IC50) in data set [1] (setting [2]) and in data set [1] (setting [3]) were 335 nM and 579 nM, respectively. Taken in the same sequence, the figures for `COc1cc2cc(c1Cl)N(C)C(=O)C[C@H](OC(=O)C(C)N(C)C(=O)CCSSCC(=O)NCCNC(=O)CC[C@H]1C(=O)N[C@@H](Cc3ccc(O)cc3)C(=O)N[C@H](Cc3c[nH]c4ccccc34)C(=O)N[C@@H](CCCCN)C(=O)N[C@@H]([C@@H](C)O)C(=O)N[C@@H](Cc3ccccc3)C(=O)N1C)[C@]1(C)O[C@H]1[C@H](C)[C@@H]1C[C@@](O)(NC(=O)O1)[C@H](OC)/C=C/C=C(\C)C2` (some centres unmarked) [Conjugate 30] were 470 nM and 2020 nM. As to `CCCCN(CCSSCCC(=O)N(C)[C@@H](C)C(=O)O[C@H]1CC(=O)N(C)c2cc(cc(OC)c2Cl)C/C(C)=C/C=C/[C@@H](OC)[C@@]2(O)C[C@H](OC(=O)N2)[C@@H](C)[C@@H]2O[C@@]12C)C(=O)CC[C@H]1C(=O)N[C@@H](Cc2ccc(O)cc2)C(=O)N[C@H](Cc2c[nH]c3ccccc23)C(=O)N[C@@H](CCCCN)C(=O)N[C@@H]([C@@H](C)O)C(=O)N[C@@H](Cc2ccccc2)C(=O)N1C` [Conjugate 22], in the data set with NCI-H69 SCLC tumors, the “H69 tumor DM-1 levels” value was 145 nM. Take `COc1cc2cc(c1Cl)N(C)C(=O)C[C@H](OC(=O)[C@H](C)N(C)C(=O)CCSSCCC(=O)N[C@H](Cc1ccccc1)C(=O)N[C@H]1CSSC[C@@H](C(=O)N[C@H](CO)[C@@H](C)O)NC(=O)[C@H]([C@@H](C)O)NC(=O)[C@H](CCCCN)NC(=O)[C@@H](Cc3c[nH]c4ccccc34)NC(=O)[C@H](Cc3ccccc3)NC1=O)[C@]1(C)O[C@H]1[C@H](C)[C@@H]1C[C@@](O)(NC(=O)O1)[C@H](OC)/C=C/C=C(\C)C2` [Conjugate 4]: the values for the IC50 in data set [1] (setting [2]) and in data set [1] (setting [3]) were 367 nM and 853 nM, respectively. In the same order, the values of `COc1cc2cc(c1Cl)N(C)C(=O)C[C@H](OC(=O)[C@H](C)N(C)C(=O)CCSSCCNC(=O)[C@H](Cc1c[nH]c3ccccc13)NC(=O)[C@@H]1CSSC[C@H](NC(=O)[C@H](N)Cc3ccccc3)C(=O)N[C@@H](Cc3ccc(O)cc3)C(=O)N[C@H](Cc3c[nH]c4ccccc34)C(=O)N[C@@H](CCCCN)C(=O)N[C@@H]([C@@H](C)O)C(=O)N1)[C@]1(C)O[C@H]1[C@H](C)[C@@H]1C[C@@](O)(NC(=O)O1)[C@H](OC)/C=C/C=C(\C)C2` [Conjugate 49] (H-[dF]CY[dW]KTCW-{NH(CH2)2SS(DM1)}; disulfide 2-7) are 69 nM and 243 nM. In the same order, the values of `COc1cc2cc(c1Cl)N(C)C(=O)C[C@H](OC(=O)[C@H](C)N(C)C(=O)CCSC1CC(=O)N(CCCNC(=O)CC[C@H](NC(=O)[C@@H]3CSSC[C@H](NC(=O)[C@H](N)Cc4ccccc4)C(=O)N[C@@H](Cc4ccc(O)cc4)C(=O)N[C@H](Cc4c[nH]c5ccccc45)C(=O)N[C@@H](CCCCN)C(=O)N[C@@H]([C@@H](C)O)C(=O)N3)C(=O)NCCCN3C(=O)CC(SCCC(=O)N(C)[C@@H](C)C(=O)O[C@H]4CC(=O)N(C)c5cc(cc(OC)c5Cl)C/C(C)=C/C=C/[C@@H](OC)[C@@]5(O)C[C@H](OC(=O)N5)[C@@H](C)[C@@H]5O[C@@]45C)C3=O)C1=O)[C@]1(C)O[C@H]1[C@H](C)[C@@H]1C[C@@](O)(NC(=O)O1)[C@H](OC)/C=C/C=C(\C)C2` (single isomer, unassigned) [Conjugate 53] are 42 nM and 175 nM.

In the case of `COc1cc2cc(c1Cl)N(C)C(=O)C[C@H](OC(=O)[C@H](C)N(C)C(=O)CCSC1CC(=O)N(CC3CCC(C(=O)N[C@H](Cc4ccccc4)C(=O)N[C@H]4CSSC[C@@H](C(=O)N[C@H](CO)[C@@H](C)O)NC(=O)[C@H]([C@@H](C)O)NC(=O)[C@H](CCCCN)NC(=O)[C@@H](Cc5c[nH]c6ccccc56)NC(=O)[C@H](Cc5ccccc5)NC4=O)CC3)C1=O)[C@]1(C)O[C@H]1[C@H](C)[C@@H]1C[C@@](O)(NC(=O)O1)[C@H](OC)/C=C/C=C(\C)C2` (single isomer, unassigned) [Conjugate 104], the values for the 50% inhibitory concentration (IC50) in data set [1] (setting [2]) and in data set [1] (setting [3]) were 279 nM and 705 nM, respectively. `COc1cc2cc(c1Cl)N(C)C(=O)C[C@H](OC(=O)[C@H](C)N(C)C(=O)CCSSC[C@H](N)C(=O)N[C@@H](CCCCN)C(=O)N[C@@H](CCCCN)C(=O)N[C@@H](CCCCN)C(=O)N[C@@H](CCCCN)C(=O)N[C@H](Cc1ccccc1)C(=O)N[C@H]1CSSC[C@@H](C(=O)N[C@H](CO)[C@@H](C)O)NC(=O)[C@H]([C@@H](C)O)NC(=O)[C@H](CCCCN)NC(=O)[C@@H](Cc3c[nH]c4ccccc34)NC(=O)[C@H](Cc3ccccc3)NC1=O)[C@]1(C)O[C@H]1[C@H](C)[C@@H]1C[C@@](O)(NC(=O)O1)[C@H](OC)/C=C/C=C(\C)C2` [Conjugate 7] (H-C(X1)KKKK[dF]CF[dW]KTC[Thr(ol)]; disulfide 7-12): the half-maximal inhibitory concentration (IC50) in data set [1] (setting [2]) was 955 nM.

Regarding `COc1cc2cc(c1Cl)N(C)C(=O)C[C@H](OC(=O)[C@H](C)N(C)C(=O)CCSSCCC(=O)NCCOCCOCCOCCOCCOCCOCCOCCOCCC(=O)N[C@H](Cc1ccccc1)C(=O)N[C@H]1CSSC[C@@H](C(=O)N[C@H](CO)[C@@H](C)O)NC(=O)[C@H]([C@@H](C)O)NC(=O)[C@H](CCCCN)NC(=O)[C@@H](Cc3c[nH]c4ccccc34)NC(=O)[C@H](Cc3ccccc3)NC1=O)[C@]1(C)O[C@H]1[C@H](C)[C@@H]1C[C@@](O)(NC(=O)O1)[C@H](OC)/C=C/C=C(\C)C2` [Conjugate 6], in data set [1] (setting [2]), the IC50 was determined as 234 nM. With `COc1cc2cc(c1Cl)N(C)C(=O)C[C@H](OC(=O)[C@H](C)N(C)C(=O)CCSSCCC(=O)NCCOCCOCCOCCNC(=O)[C@@H](NC(=O)[C@@H]1CSSC[C@H](NC(=O)[C@H](N)Cc3ccccc3)C(=O)N[C@@H](Cc3ccc(O)cc3)C(=O)N[C@H](Cc3c[nH]c4ccccc34)C(=O)N[C@@H](CCCCN)C(=O)N[C@@H]([C@@H](C)O)C(=O)N1)[C@@H](C)O)[C@]1(C)O[C@H]1[C@H](C)[C@@H]1C[C@@](O)(NC(=O)O1)[C@H](OC)/C=C/C=C(\C)C2` [Conjugate 47], the values for the concentration for half-maximal inhibition (IC50) in data set [1] (setting [2]) and in data set [1] (setting [3]) were 2130 nM and 1270 nM, respectively. In the same order, the values of `COc1cc2cc(c1Cl)N(C)C(=O)C[C@H](OC(=O)[C@H](C)N(C)C(=O)CCSC1CC(=O)N(CC(=O)N[C@H](Cc3ccccc3)C(=O)N[C@H]3CSSC[C@@H](C(=O)N[C@H](CO)[C@@H](C)O)NC(=O)[C@H]([C@@H](C)O)NC(=O)[C@H](CCCCN)NC(=O)[C@@H](Cc4c[nH]c5ccccc45)NC(=O)[C@H](Cc4ccccc4)NC3=O)C1=O)[C@]1(C)O[C@H]1[C@H](C)[C@@H]1C[C@@](O)(NC(=O)O1)[C@H](OC)/C=C/C=C(\C)C2` (single isomer, unassigned) [Conjugate 108] are 96 nM and 1280 nM. In the same order, the values of `COc1cc2cc(c1Cl)N(C)C(=O)C[C@H](OC(=O)[C@H](C)N(C)C(=O)CCSSC(C)CCN[C@H](Cc1ccccc1)C(=O)N[C@H]1CSSC[C@@H](C(=O)N[C@H](CO)[C@@H](C)O)NC(=O)[C@H]([C@@H](C)O)NC(=O)[C@H](CCCCN)NC(=O)[C@@H](Cc3c[nH]c4ccccc34)NC(=O)[C@H](Cc3ccccc3)NC1=O)[C@]1(C)O[C@H]1[C@H](C)[C@@H]1C[C@@](O)(NC(=O)O1)[C@H](OC)/C=C/C=C(\C)C2` (single isomer, unassigned) [Conjugate 82] are 148 nM and 867 nM. Taken in the same sequence, the figures for `COc1cc2cc(c1Cl)N(C)C(=O)C[C@H](OC(=O)[C@H](C)N(C)C(=O)CCSSCCNC(=O)N[C@H](Cc1ccccc1)C(=O)N[C@H]1CSSC[C@@H](C(=O)N[C@H](CO)[C@@H](C)O)NC(=O)[C@H]([C@@H](C)O)NC(=O)[C@H](CCCCN)NC(=O)[C@@H](Cc3c[nH]c4ccccc34)NC(=O)[C@H](Cc3ccccc3)NC1=O)[C@]1(C)O[C@H]1[C@H](C)[C@@H]1C[C@@](O)(NC(=O)O1)[C@H](OC)/C=C/C=C(\C)C2` [Conjugate 84] were 76 nM and 312 nM.
